# Test results published in US9242984B2, “Pyrazolyl derivatives as Syk inhibitors” (Merck Sharp & Dohme Corp., priority 2012, dated 2016).
# Biological target: T1, recombinant human Syk (GST-hSyk fusion protein) (Homo sapiens, UniProt P43405)
# T1 construct: purchased Carna Biosciences 08-176
# Assay: Homogeneous Time-Resolved Fluorescence (HTRF) assay for the recombinant human Syk enzyme
# Format: biochemical
# Details: 10-dose titration, 25 μM ATP; read-out: rhSYK IC50
# Outline: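 GST-hSyk (5 pM) preincubated 10 min with compound (0.1% DMSO) in 15 mM Tris-HCl pH 7.5, 2 mM DTT; reaction started with 250 nM biotinylated peptide, 5 mM Mg, 25 μM ATP, 45 min, room temperature. EDTA quench, Eu-anti-phosphotyrosine/SA-APC HTRF read after 30 min; IC50 from 10-dose titration (10 μM–0.508 nM), four-parameter fit.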
row,IC50 [nM],Molecule
1,1.2,"Cc1cc(Nc2nccc(C(F)(F)F)n2)cc(-c2cnn(C[C@@H]3OC(=O)N[C@H]3C)c2)c1 (single isomer, unassigned) [Example 23.1]"
2,34.9,"Cc1cc(Nc2ncccn2)cc(-c2cnn(C3CC(C(N)=O)C3)c2)c1 (single isomer, unassigned) [Example 31.1, 3-(4-(3-Methyl-5-(pyrimidin-2-ylamino)phenyl)-1H-pyrazol-1-yl)cyclobutanecarboxamide]"
3,3.3,"Cc1cc(Nc2nccc(C(F)F)n2)cc(-c2cnn(CC(O)(CO)C(F)(F)F)c2)c1 (single isomer, unassigned) [Example 32.2, (S or R)-2-((4-(3-((4-(difluoromethyl)pyrimidin-2-yl)amino)-5-methylphenyl)-1H-pyrazol-1-yl)methyl)-3,3,3-trifluoropropane-1,2-diol]"
4,3.5,"Cc1cc(Nc2ncc(F)c(C(F)F)n2)cc(-c2cnn([C@@H]3CCC[C@@H](O)[C@H]3O)c2)c1 (single isomer, unassigned) [Example 10.11, 3-[4-(3-{[4-(difluoromethyl)-5-fluoro-pyrimidin-2-yl]amino}-5-methylphenyl)-1H-pyrazol-1-yl]cyclohexane-1,2-diol]"
5,1.6,"Cc1cc(Nc2nccc(C(F)F)n2)cc(-c2cnn(CC3OC(=O)NC3CO)c2)c1 (single isomer, unassigned) [Example 33.1, 5-{[4-(3-{[4-(difluoromethyl)pyrimidin-2-yl]amino}-5-methylphenyl)-1H-pyrazol-1-yl]methyl}-4-(hydroxymethyl)-1,3-oxazolidin-2-one]"
6,2.7,"Cc1cc(Nc2nccc(C(F)F)n2)cc(-c2cnn(C[C@H](O)C(N)=O)c2)c1 [Example 16, (2S)-3-[4-(3-{[4-(difluoromethyl)pyrimidin-2-yl]amino}-5-methylphenyl)-1H-pyrazol-1-yl]-2-hydroxypropanamide]"

# Same assay, conditions: IC50 class; 10-dose titration, 25 μM ATP; read-out: rhSYK Activity
row,IC50 [nM],Molecule
1,≤ 100,"Cc1cc(Nc2nccc(C(F)F)n2)cc(-c2cnn(CC(O)C3CCCNC3)c2)c1 (centres unmarked) [Example 5.34, 2-[4-(3-{[4-(difluoromethyl)pyrimidin-2-yl]amino}-5-methylphenyl)-1H-pyrazol-1-yl]-1-piperidin-3-ylethanol]"
2,≤ 100,"Cc1cc(Nc2nccc(C(F)(F)F)n2)cc(-c2cnn(CC3CNC(=O)O3)c2)c1 (single isomer, unassigned) [Example 2.4, 5-{[4-(3-methyl-5-{[4-(trifluoromethyl)-pyrimidin-2-yl]-amino}phenyl)-1H-pyrazol-1-yl]methyl}-1,3-oxazolidin-2-one]"
3,≤ 100,"Cc1cc(Nc2nccc(C)n2)cc(-c2cnn(CC(C)(O)CO)c2)c1 (single isomer, unassigned) [Example 25.4, 2-methyl-3-(4-{3-methyl-5-[(4-methylpyrimidin-2-yl)amino]phenyl}-1H-pyrazol-1-yl)propane-1,2-diol]"
4,≤ 100,"CC(=O)C(C)n1cc(-c2cc(C)cc(Nc3nccc(C(F)F)n3)c2)cn1 (centres unmarked) [Example 21.3, 3-[4-(3-{[4-(difluoromethyl)pyrimidin-2-yl]amino}-5-methylphenyl)-1H-pyrazol-1-yl]butan-2-one]"
5,≤ 100,"Cc1cc(Nc2nccc(C(F)(F)F)n2)cc(-n2cc(C(C)(O)[C@H]3CC[C@H](C(=O)O)CC3)cn2)c1 (stereo partly drawn) [Example 19.12, trans-4-{1-hydroxy-1-[1-(3 methyl-5-{[4-(trifluoromethyl)pyrimidin-2-yl]amino}phenyl)-1H-pyrazol-4-yl]ethyl}cyclohexanecarboxylic acid]"
6,≤ 100,"Cc1cc(Nc2nccc(C(F)F)n2)cc(-c2cnn(CC3(C)CNC(=O)O3)c2)c1 (centres unmarked) [Example 3.124, 5-{[4-(3-{[4-(difluoromethyl)pyrimidin-2-yl]amino}-5-methylphenyl)-1H-pyrazol-1-yl]methyl}-5-methyl-1,3-oxazolidin-2-one]"
7,≤ 100,"Cc1cc(Nc2nccc(C(F)F)n2)cc(-c2cnn(CC3(O)CCS(=O)(=O)CC3)c2)c1 [Example 5.42, 4-{[4-(3-{[4-(difluoromethyl)pyrimidin-2-yl]amino}-5-methylphenyl)-1H-pyrazol-1-yl]methyl}tetrahydro-2H-thiopyran-4-ol 1,1-dioxide]"
8,100 to 1000,"Cc1cc(Nc2nccc(C(F)(F)F)n2)cc(-c2cnn(CC3(O)CCN(CC(=O)OC(C)(C)C)CC3)c2)c1 [Example 12.4, tert-butyl (4-hydroxy-4-{[4-(3-methyl-5-{[4-(trifluoro-methyl)pyrimidin-2-yl]amino}phenyl)-1H-pyrazol-1-yl]methyl}-piperidin-1-yl)acetate]"
9,≤ 100,4-{1-[4-(4-methyl-6-{[4-(trifluoromethyl)pyridin-2-yl]amino}pyridin-2-yl)-1H-pyrazol-1-yl]ethyl}pyrrolidin-2-one [Example 1.32]
10,≤ 100,"Cc1cc(Nc2nccc(C(F)(F)F)n2)cc(-c2cnn(CC3CCO3)c2)c1 (centres unmarked) [Example 3.18, N-{3-methyl-5-[1-(oxetan-2-ylmethyl)-1H-pyrazol-4-yl]-phenyl}-4-(trifluoro-methyl)-pyrimidin-2-amine]"
11,≤ 100,"Cc1cc(Nc2nccc(C(F)(F)F)n2)cc(-c2cnn(CCCN)c2)c1 [Example 3.20, N-{3-[1-(3-aminopropyl)-1H-pyrazol-4-yl]-5-methylphenyl}-4-(trifluoromethyl)pyrimidin-2-amine]"
12,≤ 100,Cc1cc(Nc2nccc(C(F)(F)F)n2)cc(-c2cnn(C3CCCC(O)C3O)c2)c1 (centres unmarked) [Example 10.3]
13,≤ 100,"Cc1cc(Nc2nccc(C(F)(F)F)n2)cc(-c2cnn(C[C@@H]3OC(=O)N[C@H]3C)c2)c1 (single isomer, unassigned) [Example 23.1]"
14,≤ 100,"Cc1cc(Nc2nccc(C(F)(F)F)n2)cc(-c2cnn(C(C)C(C)(O)CO)c2)c1 (single isomer, unassigned) [Example 21.9, 2-methyl-3-[4-(3-methyl-5-{[4-(trifluoromethyl)pyrimidin-2-yl]amino}phenyl)-1H-pyrazol-1-yl]butane-1,2-diol]"
15,≤ 100,"Cc1cc(Nc2nccc(C(F)(F)F)n2)cc(-c2cnn([C@@H](C)[C@](C)(O)CO)c2)c1 (single isomer, unassigned) [Example 21.10, 2-methyl-3-[4-(3-methyl-5-{[4-(trifluoromethyl)pyrimidin-2-yl]amino}phenyl)-1H-pyrazol-1-yl]butane-1,2-diol]"
16,≤ 100,"Cc1cc(Nc2nccc(C(F)F)n2)cc(-c2cnn(CC(C)(C)N)c2)c1 [Example 2.85, N-{3-[1-(2-amino-2-methylpropyl)-1H-pyrazol-4-yl]-5-methylphenyl}-4-(difluoromethyl)pyrimidin-2-amine]"

row,IC50 [nM],Molecule
1,≤ 100,"Cc1cc(Nc2ncccn2)cc(-c2cnn(C3CC(C(N)=O)C3)c2)c1 (single isomer, unassigned) [Example 31.1, 3-(4-(3-Methyl-5-(pyrimidin-2-ylamino)phenyl)-1H-pyrazol-1-yl)cyclobutanecarboxamide]"
2,≤ 100,"Cc1cc(Nc2nccc(C3CC3)n2)cc(-c2cnn(CCC(=O)O)c2)c1 [Example 2.40, 3-(4-{3-[(4-cyclopropylpyrimidin-2-yl)amino]-5-methylphenyl}-1H-pyrazol-1-yl)propanoic acid]"
3,≤ 100,"Cc1cc(Nc2nccc(C)n2)cc(-c2cnn(CC3OC(=O)NC3C(C)C)c2)c1 (single isomer, unassigned) [Example 23.16, 4-(1-methylethyl)-5-[(4-{3-methyl-5-[(4-methylpyrimidin-2-yl)amino]phenyl}-1H-pyrazol-1-yl)methyl]-1,3-oxazolidin-2-one]"
4,≤ 100,"Cc1cc(Nc2nccc(C(F)F)n2)cc(-c2cnn(CC3OC(=O)NC3C3CC3)c2)c1 (single isomer, unassigned) [Example 23.18, 4-cyclopropyl-5-{[4-(3-{[4-(difluoromethyl)pyrimidin-2-yl]amino}-5-methylphenyl)-1H-pyrazol-1-yl]methyl}-1,3-oxazolidin-2-one]"
5,≤ 100,"Cc1cc(Nc2nccc(C(F)F)n2)cc(-c2cnn(CC(O)(CO)C(F)(F)F)c2)c1 (single isomer, unassigned) [Example 32.2, (S or R)-2-((4-(3-((4-(difluoromethyl)pyrimidin-2-yl)amino)-5-methylphenyl)-1H-pyrazol-1-yl)methyl)-3,3,3-trifluoropropane-1,2-diol]"
6,≤ 100,"Cc1cc(Nc2nccc(C)n2)cc(-c2cnn(CC(C)(O)CO)c2)c1 (single isomer, unassigned) [Example 25.2, 2-methyl-3-(4-{3-methyl-5-[(4-methylpyrimidin-2-yl)amino]phenyl}-1H-pyrazol-1-yl)propane-1,2-diol]"
7,≤ 100,"Cc1cc(Nc2cc(C3CC3)ccn2)nc(-n2cc(CCC(=O)O)cn2)c1 [Example 18.3, 3-(1-{6-[(4-cyclopropylpyridin-2-yl)amino]-4-methylpyridin-2-yl}-1H-pyrazol-4-yl)propanoic acid]"
8,≤ 100,"Cc1cc(Nc2ncc(F)c(C(F)F)n2)cc(-c2cnn([C@@H]3CCC[C@@H](O)[C@H]3O)c2)c1 (single isomer, unassigned) [Example 10.11, 3-[4-(3-{[4-(difluoromethyl)-5-fluoro-pyrimidin-2-yl]amino}-5-methylphenyl)-1H-pyrazol-1-yl]cyclohexane-1,2-diol]"
9,≤ 100,"COc1ccnc(Nc2cc(C)cc(-c3cnn(C[C@](C)(O)CO)c3)c2)n1 [Example 2.88, (2S)-3-(4-{3-[(4-methoxypyrimidin-2-yl)amino]-5-methylphenyl}-1H-pyrazol-1-yl)-2-methylpropane-1,2-diol]"
10,≤ 100,"Cc1cc(Nc2nccc(C(F)(F)F)n2)cc(-c2cnn(C(C)c3ccc(C(=O)O)cc3)c2)c1 (centres unmarked) [Example 1.49, 4-{1-[4-(3-methyl-5-{[4-(trifluoromethyl)pyrimidin-2-yl]amino}phenyl)-1H-pyrazol-1-yl]ethyl}benzoic acid]"
11,≤ 100,"Cc1cc(Nc2nccc(C(F)F)n2)cc(-c2cnn(CC3OC(=O)NC3CO)c2)c1 (single isomer, unassigned) [Example 33.1, 5-{[4-(3-{[4-(difluoromethyl)pyrimidin-2-yl]amino}-5-methylphenyl)-1H-pyrazol-1-yl]methyl}-4-(hydroxymethyl)-1,3-oxazolidin-2-one]"
12,≤ 100,"Cc1cc(Nc2nccc(C(F)F)n2)cc(-c2cnn(C(C[C@@H](C)O)[C@@H](C)O)c2)c1 (stereo in doubt) [Example 2.52, 3-[4-(3-{[4-(difluoromethyl)pyrimidin-2-yl]amino}-5-methylphenyl)-1H-pyrazol-1-yl]hexane-2,5-diol]"
13,≤ 100,"Cc1cc(Nc2nccc(C(F)F)n2)cc(-c2cnn(C[C@H](O)C(N)=O)c2)c1 [Example 16, (2S)-3-[4-(3-{[4-(difluoromethyl)pyrimidin-2-yl]amino}-5-methylphenyl)-1H-pyrazol-1-yl]-2-hydroxypropanamide]"
14,≤ 100,"Cc1cc(Nc2nccc(C(F)(F)F)n2)cc(-c2cnn(CCCC(N)=O)c2)c1 [Example 8.9, 4-[4-(3-methyl-5-{[4-(trifluoromethyl)-pyrimidin-2-yl]amino}phenyl)-1H-pyrazol-1-yl]butanamide]"
15,≤ 100,"Cc1cc(Nc2nccc(C(F)F)n2)cc(-c2cnn(CC3OC(=O)NC3C)c2)c1 (single isomer, unassigned) [Example 23.9, 5-{[4-(3-{[4-(difluoromethyl)pyrimidin-2-yl]amino}-5-methylphenyl)-1H-pyrazol-1-yl]methyl}-4-methyl-1,3-oxazolidin-2-one]"
16,≤ 100,"Cc1cc(Nc2ncc(F)c(C)n2)cc(-c2cnn(C[C@@H](O)C(=O)O)c2)c1 [Example 11.13, (2R)-3-(4-{3-[(5-fluoro-4-methylpyrimidin-2-yl)amino]-5-methylphenyl}-1H-pyrazol-1-yl)-2-hydroxypropanoic acid]"
